Measured values published in publication PMC11097369 (ACS Omega, 2024).

Tests used:
SCLC = conditions: second-line treatment, patients with SCLC; cited from earlier work
CFU-GM assay = type: cell-based; conditions: human, human bone marrow mononuclear cells
R/R-PTCL = conditions: cited from earlier work

Compound | overall response rate (SCLC) | IC90 (CFU-GM assay) | progression-free survival compared to investigator-selected single-agent comparators (R/R-PTCL)
COc1ccc2[nH]c3c(c2c1)CCN[C@]31CS[C@@H]2c3c(OC(C)=O)c(C)c4c(c3[C@H](COC1=O)N1[C@@H]2[C@H]2c3c(cc(C)c(OC)c3O)C[C@@H]([C@@H]1O)N2C)OCO4 [lurbinectedin] | 35.2% | – | –
COc1cc(Nc2ncc3c(n2)-c2ccc(Cl)cc2C(c2c(F)cccc2OC)=NC3)ccc1C(=O)O [Alisertib] | – | 252 nM | failed to improve the progression-free survival
